Read-outs that look alike come from different tables or passages of the source.
How the values were obtained:
endogenous TFE3 = experiment: TFE3 nuclear translocation, immunocytochemistry high-content imaging; format: cell-based
endogenous TFEB = experiment: TFEB nuclear translocation, immunocytochemistry high-content imaging; format: cell-based
SH-SY5Y cells [1] = test system: SH-SY5Y cells; further: reference of the scale not given here
SH-SY5Y cells [2] = settings: human
SH-SY5Y cells [3] = settings: human; remark: listed apart in the source
Procedure: Total cell lysis with 5 µL 5% Triton-X 100 (Sigma-Aldrich, T8787) is used as a positive control for the assay and toxicity is expressed as a percentage of luminescence under DMSO conditions.

SH-SY5Y cells [4] = experiment: Chemotype enrichment analysis of PKIS2 primary screen hit categories

SMILES	TFE3 % (endogenous TFE3)	TFEB % (endogenous TFEB)	DQ Intensity (SH-SY5Y cells [1])	DQ Spot (SH-SY5Y cells [1])	Nuclear Count (SH-SY5Y cells [2]; SH-SY5Y cells, 24 h, 1 µM)	AK (SH-SY5Y cells [3]; SH-SY5Y cells, 24 h, 1 µM)	Outcome (SH-SY5Y cells [4])	Nuclear Count (SH-SY5Y cells [2]; 24 h, 1 µM)	AK (SH-SY5Y cells [3]; 24 h, 1 µM)	Nuclear Count (SH-SY5Y cells [2])	AK (SH-SY5Y cells [3])
Nc1n[nH]c2ncc(-c3ccccc3)cc12 [SB-517081]	10.19%	4.88%	121.05	122.46	74.04	82.09	DQ Only				
Nc1n[nH]c2nnc(-c3ccccc3)cc12 [SB-517389]	18.57%	5.21%	136.15	127.72	69.78	99.42	DQ Only				
CCCC(=O)Nc1n[nH]c2ncc(-c3cccc4ccccc34)cc12 [SB-642057]	14.05%	5.52%	126.93	107.10	59.85	230.70	TOXIC				
O=C(Nc1n[nH]c2nc(-c3ccccc3)c(Br)cc12)C1CC1 [SB-708998]	9.05%	9.86%	93.68	102.39	73.65	115.51					
O=C(Nc1n[nH]c2nc(-c3ccccc3)ccc12)C1CC1 [SB-708999]	15.72%	6.34%	102.03	111.17	127.54	67.50					
O=C(Nc1n[nH]c2nc(-c3ccc(O)cc3)ccc12)C1CC1 [SB-710363]	18.16%	15.49%	87.11	130.75	103.55	133.76	DQ Only				
COc1cccc(-c2ccc3c(NC(=O)C4CC4)n[nH]c3n2)c1 [SB-710903]	8.53%	9.14%	82.25	92.88	105.81	104.06					
COc1ccccc1-c1ccc2c(NC(=O)C3CC3)n[nH]c2n1 [SB-711239]	10.01%	3.98%	73.89	92.69	104.88	73.81					
O=C(Nc1n[nH]c2nc(-c3cccc(O)c3)ccc12)C1CC1 [SB-711805]	23.15%	10.76%	78.27	112.05	107.31	105.72	TFE3				
O=C(Nc1n[nH]c2nc(-c3ccccc3O)ccc12)C1CC1 [SB-711880]	12.20%	4.35%	70.14	92.53	102.12	88.20					
O=C(Nc1n[nH]c2cc(-c3cccs3)ccc12)C1CC1 [SB-731284]	10.84%	12.38%	119.55	107.15	98.09	71.30					
CCN1CCN(CCCC(=O)Nc2n[nH]c3nc(-c4ccc(O)cc4)c(Br)cc23)CC1 [SB-731579]	6.82%	17.61%	115.44	103.09	67.01	91.62					
O=C(Nc1n[nH]c2cc(-c3ccsc3)ccc12)C1CC1 [SB-732932]	8.30%	11.50%	63.56	84.83	130.18	126.66					
O=C(Nc1n[nH]c2nc(-c3ccccc3)c(Cl)cc12)C1CC1 [SB-734909]	10.45%	6.63%	123.78	126.24	45.35	83.64	DQ Only				
O=C(Nc1n[nH]c2nc(-c3cccs3)c(Br)cc12)C1CC1 [SB-735297]	10.45%	7.45%	103.59	106.97	125.04	112.72					
O=C(Nc1n[nH]c2cc(-c3cccc(F)c3)ccc12)C1CC1 [SB-735464]	14.17%	2.08%	82.14	107.31	95.28	75.61					
O=C(Nc1n[nH]c2cc(-c3ccoc3)ccc12)C1CC1 [SB-738481]	12.05%	6.46%	82.31	113.23	105.01	109.29					
O=C(Nc1n[nH]c2nc(-c3nccs3)c(Br)cc12)C1CC1 [SB-742251]	5.59%	12.43%	109.29	109.81	130.73	80.83					

SMILES	TFE3 % (endogenous TFE3)	TFEB % (endogenous TFEB)	DQ Intensity (SH-SY5Y cells [1])	DQ Spot (SH-SY5Y cells [1])	Nuclear Count (SH-SY5Y cells [2]; SH-SY5Y cells, 24 h, 1 µM)	AK (SH-SY5Y cells [3]; SH-SY5Y cells, 24 h, 1 µM)	Outcome (SH-SY5Y cells [4])	Nuclear Count (SH-SY5Y cells [2]; 24 h, 1 µM)	AK (SH-SY5Y cells [3]; 24 h, 1 µM)	Nuclear Count (SH-SY5Y cells [2])	AK (SH-SY5Y cells [3])
O=C(Nc1n[nH]c2nc(-c3nccs3)c(Br)cc12)C1CCCC1 [SB-742609]	7.93%	8.05%	95.35	108.28	69.12	69.40					
O=C(Nc1n[nH]c2nc(-c3cccs3)c(Br)cc12)C1CCCC1 [SB-743341]	12.29%	21.21%	118.79	104.54	111.90	91.49					
COc1cccc(C2=C(Nc3ccc(Cl)c(C(=O)O)c3)C(=O)NC2=O)c1 [UNC10225038A]	15.59%	4.97%	120.07	110.06	91.66	67.98					
COc1ccccc1C1=C(Nc2cccc(O)c2)C(=O)NC1=O [UNC10225043A]	13.36%	8.14%	136.47	112.45				83.80	125.63		
O=C1NC(=O)C(c2ccccc2)=C1Nc1cccc(O)c1 [UNC10225065A]	9.48%	4.40%	107.12	107.03	88.09	106.60					
O=C1NC(=O)C(c2ccc(Cl)cc2)=C1Nc1ccc(O)cc1 [UNC10225090A]	11.41%	11.08%	92.30	94.51	99.00	134.26					
O=C1NC(=O)C(c2ccccc2Cl)=C1Nc1cccc(Cl)c1 [UNC10225092A]	13.82%	6.93%	81.85	94.92	114.88	96.89					
Cn1cnc2c(N)ncnc21 [UNC10225123A]	9.16%	4.18%	105.88	110.82						110.43	74.79
Nc1n[nH]c2nnc(-c3ccccc3)c(-c3ccccc3)c12 [UNC10225185A]	12.30%	8.38%	101.09	91.84	95.91	73.45					
CSc1ccc(NC2=C(c3ccc(Cl)cc3)C(=O)NC2=O)cc1 [UNC10225216A]	17.03%	4.27%	88.23	93.29	155.73	104.34					
COc1ccc(C2=C(Nc3cccc(C(=O)O)c3)C(=O)NC2=O)cc1 [UNC10225244A]	6.87%	15.51%	74.93	82.38	109.36	80.02					
COc1cccc(C2=C(Nc3cc(Cl)c(O)c(Cl)c3)C(=O)NC2=O)c1 [UNC10225267A]	12.35%	6.51%	123.38	111.15	119.42	136.91					
Cc1ccc(C(=O)NC2CCCC2)cc1-c1ccc(C(=O)NCC2CC2)cc1 [UNC10225270A]	10.04%	16.20%	84.15	81.23				92.17	80.83		
COc1cccc(C2=C(Nc3cccc(Cl)c3)C(=O)NC2=O)c1 [UNC10225288A]	8.01%	6.04%	106.89	108.64	80.70	133.69					
CSc1ccc(NC2=C(c3ccccc3Cl)C(=O)NC2=O)cc1 [UNC10225346A]	14.52%	6.03%	121.64	113.39	103.43	105.29					
Cc1ccc(-n2nc(C(C)(C)C)cc2NC(=O)Nc2ccc(OCCN3CCOCC3)c3ccccc23)cc1 [UNC10225354A]	11.86%	7.39%	143.22	116.14						65.33	120.63
COc1cccc(C2=C(Nc3cccc(O)c3)C(=O)NC2=O)c1 [UNC10225456A]	7.19%	8.57%	100.94	105.72	97.83	101.77					
O=C1NC(=O)C(c2ccc(Cl)cc2)=C1Nc1cccc(Cl)c1 [UNC10225464A]	10.27%	3.70%	132.70	111.59	85.62	74.47					
